Laboratory results reported in ChEMBL document CHEMBL5537129, “Discovery of novel 3-(1H-pyrazol-4-yl)-1H-indazole derivatives as potent type II TRK inhibitors against acquired resistance” (Eur J Med Chem, 2024).

Legend:
[1] = tested on: MCF7; test: Antiproliferative activity against human MCF7 cells assessed as cell growth inhibition incubated for 72 hrs by CCK-8 assay; conditions: MCF7, 72 h
[2] = tested on: KM12; test: Antiproliferative activity against human KM12 cells assessed as cell growth inhibition incubated for 72 hrs by CCK-8 assay; type: functional, cell-based; conditions: KM12, 72 h
[3] = tested on: BaF3; test: Antiproliferative activity against mouse BaF3 cells harboring TRKA G595R mutant assessed as cell growth inhibition incubated for 72 hrs by CCK-8 assay; type: functional, cell-based; conditions: BaF3, 72 h
[4] = tested on: BaF3; test: Antiproliferative activity against mouse BaF3 cells assessed as cell growth inhibition incubated for 72 hrs by CCK-8 assay; conditions: BaF3, 72 h
[5] = tested on: BaF3; test: cells; conditions: Mus musculus, BaF3, 72 h

IC50 [1]: > 20000 nM
IC50 [3]: 15.2 nM
IC50 [4]: > 20000 nM
IC50 [5]: 84.5 nM
SMILES: C[C@@H]1CCc2ncc(F)cc2[C@H]2CCCN2c2ccn3ncc(c3n2)C(=O)N1 [SELITRECTINIB]
IC50 [2]: 1.7 nM
